“Also recorded” adds a separate entry of the source.
Columns and labels:
[1] = test system: coronary arteries subjected to PTCA; experiment: Morphometric analysis of neointima hyperplasia after PTCA and local delivery; assay type: in vivo, pigs
Procedure: Eighteen juvenile farm pigs (9 female, and 9 castrated male) weighing 20-25 kg were studied. The study was approved by, and conducted in accordance with, the guidelines of the Animal Care and Ethical Research Committee of the Montreal Heart Institute. Before the procedure, animals were given 650 mg of acetylsalicylic acid and 30 mg of nifedipine orally, premedicated with intramuscular injection of 6 mg/kg of a mixture of tiletamine hydrochloride and zolazepam hydrochloride, and given 0.05 mg of atropine. The invasive procedure was performed under general anesthesia with a mixture of isoflurane (1 to 1.5%) and oxygen enriched air. The right femoral artery was cannulated percutaneously, and an 8 Fr arterial sheath was introduced. After arterial access had been obtained, 100 mg of lidocaine and 250 U/kg of heparin were administered intra-arterially via the sheath. Activated coagulation time was maintained at >300 seconds throughout the procedure. […] Standard PTCA equipment was used. An 8 Fr right Amplatz guiding catheter and right Judkins guiding catheter were used for cannulation of the left and right coronary arteries, respectively. PTCA was performed with a balloon size chosen to correspond to a balloon/artery ratio of 1.1-1.3. Three 30-second inflations at 10 atm pressure were performed with a 30-second interval between each inflation. Inflations were performed adjacent to major side branches to facilitate identification during harvesting, taking precaution not to include any side branch in the intended PTCA site. The left anterior descending, left circumflex, and right coronary arteries of each animal were subjected to PTCA. After PTCA, each coronary artery of an animal was randomized to receive either 600 μg of 17-beta estradiol locally, or vehicle alone locally, or PTCA only. The chemicals 17-beta estradiol and its vehicle 2-hydroxypropyl-beta-cyclodextrin (HPCD) were purchased from Sigma Chemical Co. The InfusaSleeve catheter (Local Med, Inc.) was used for local delivery.^12 Five ml of the designated substance was delivered at a driving pressure of 10 atm and support balloon pressure of 6 atm. Of the 18 animals, 2 died a few days after PTCA, and were excluded; thus, 16 animals were analyzed. Twelve animals were euthanized at 28 days, and 4 at 7 days. After premedication and anesthesia, the right internal jugular vein and common carotid artery were cannulated. Following cross-clamping of the descending thoracic aorta exposed via a left lateral thoracotomy, exsanguination was performed, with simultaneous administration of 1 l of 0.9% NaCl solution. The heart was perfusion-fixed in vivo with 2 l of 10% buffered formalin at 200 mm Hg pressure, removed from the animal, and placed in 10% buffered formalin solution. Coronary arteries were then dissected free from surrounding tissues. The site of PTCA was identified in relation to adjacent side branches, which served as landmarks. The injured segment was harvested with a 1 cm normal segment proximal and distal to the injured site. Serial sections 3 to 5 mm long were made from the harvested segment, with a minimum of at least 3 sections (maximum 5) from each PTCA site. Sections were stored in buffered 10% formalin and subjected to dehydration with increasing concentrations of alcohol, followed by treatment with xylene and paraffin. Each section was then cut to slices of 6 μm thickness with a microtome (Olympus cut 4060 E), and stained with Verhoeff's stain for morphometric analysis. Measurements were made with a video microscope (Leitz Diaplan, equipped with a Sony DXC 970 MD color video camera) linked to a 486 personal computer and customized software. A minimum of 3 sections for each injured segment were analyzed and results averaged. Analyses were made by a single observer unaware of the treatment group to which each segment had bee allocated. Randomly selected sections were viewed by a second observer (also blinded to protocol) independently; inter-observer variability was <5%. […]

[2] = test system: proliferating SMC (PCNA-positive); experiment: PCNA immunohistochemistry of the proliferative response to injury; assay type: in vivo, pigs; settings: 7 days after PTCA
Procedure: Following slicing with a microtome and blocking of non-specific antibodies, the sections were treated with mouse anti-proliferating cell nuclear antigen (PCNA) antibodies and diluted biotinylated goat anti-mouse antibodies. They were then incubated with avidin-biotin (Elite ABC Kit, Vector Laboratories), and developed with 3,3′-diaminobenzidine (Vector Laboratories). They were finally counter-stained with hematoxylin. Porcine liver cells were used as a positive control. For each section, a 6 μm slice counter-stained with hematoxylin without treatment with the primary antibody (mouse anti-PCNA) served as a negative control. The proliferative response to injury was studied by immunohistochemical analysis of samples from animals euthanized at 7 days. The % proliferating SMC was obtained by dividing the number of PCNA-positive SMC by the total number of SMC in each field; separate measurements were made for neointima and media layers. The proliferating cells were identified as SMC by positive staining of parallel sections with a smooth muscle actin antibody. To standardize comparison among treatment groups, measurements were obtained at 4 fixed locations separated by 90° sites for each section, and the results averaged.

[3] = test system: coronary arteries subjected to PTCA; experiment: Response to intracoronary acetylcholine by quantitative coronary angiography after PTCA; assay type: in vivo, pigs
Procedure: The study protocol was approved by the Animal Care and Ethical Research Committee of the Montreal Heart Institute. Juvenile farm pigs weighing 20-25 kg (1 female, and 8 castrated males) were used. On the day of the experiment, animals received 650 mg of acetylsalicylic acid and 30 mg of nifedipine orally, were premedicated with 6 mg/kg of tiletamine hydrochloride and zolazepam hydrochloride, and were given 0.05 mg of atropine intramuscularly. Under general anesthesia (a mixture of 1-1.5% isoflurane and oxygen enriched air), the right femoral artery was cannulated percutaneously. An 8 Fr arterial sheath was introduced, and […] of lidocaine and 250 U/kg of heparin were administered intra-arterially. Additional heparin was administered during PTCA if needed, to maintain an activated coagulation time of >300 seconds.
An 8 Fr right Amplatz guiding catheter and right Judkins guiding catheter were used for cannulation of the left and right coronary arteries, respectively. A standard balloon catheter (corresponding to a balloon/artery ratio of 1.1-1.3:1) was advanced over a 0.014″ floppy guide wire, and 3 successive 30-second inflations at 10 atm pressure were made with a 30 second interval between each inflation. PTCA was performed on all 3 coronary […] of each animal. For local delivery, the InfusaSleeve catheter (LocalMed Inc.) was used, which permits safe drug delivery with negligible additional injury (7). After balloon dilatation, each coronary artery of an animal was randomized to receive either 600:g of 17-beta estradiol (in 5 ml), vehicle alone (5 ml), or PTCA only. The vehicle 2-hydroxypropyl-beta-cyclodextrin (HPCD), and 17-beta estradiol were obtained from Sigma Chem. Co. For local delivery with the InfusaSleeve catheter, a proximal driving pressure of 10 atm and support balloon pressure of 6 atm were utilized.
All 9 animals underwent cardiac catheterization at the end of 4 weeks. After a baseline coronary angiogram, selective cannulation of the proximal portion of a coronary artery was performed with a single lumen balloon catheter (TotalCross, Schneider) for the administration of vasoactive agents. Acetylcholine (Ach) in increasing concentrations of 10^−7 M, 10^−6 M, 10^−5 M, 10^−4 M, was successively infused through the lumen port of the catheter. Each dose was administered for a duration of 3 minutes at a constant rate of 1 ml/min using an infusion pump. Coronary angiography was performed at the end of each dose. After infusion of the highest concentration of Ach (10^−4 M and angiography, 100:g of nitroglycerin was administered via the lumen port of the catheter, and a coronary angiogram performed. The same protocol was repeated for the other 2 coronary arteries. Heart rate, blood pressure, and ECG were monitored continuously throughout the experiment.
Coronary angiography was performed with a single plane imaging system (Electromed Intl). […] Care was taken to maintain the same angulation during angiography of a segment throughout the procedure. Ionic contrast (MD-76, Mallinckrodt Medical Inc) was used throughout the experiment. Images were captured at a frame speed of 30 frames/sec, and stored digitally. A segment of contrast-filled guiding catheter was included in every frame, for the purpose of calibration. Calibration was performed using the known diameter of the contrast-filled guiding catheter as the reference segment, to avoid error due to magnification. […]

[4] = test system: endothelium of injured coronary arteries; experiment: Reendothelialization by lectin Dolichos biflorus agglutinin immunohistochemistry; assay type: in vivo, pigs
Procedure: (§1) The animals were euthanized at 4 weeks. Under general anesthesia as described above, exsanguination was performed with replacement by 1 l of 0.9% NaCl solution. The heart was perfusion-fixed in vivo with 2 l of 10% buffered formalin at 200 mm Hg pressure. The heart was then removed, and the coronary arteries were harvested immediately. From the injured segment (identified in relation to side branches), serial sections of 3-5 mm were made, and stored in 10% buffered formalin solution. The sections were then treated with incremental concentrations of alcohol followed by treatment with xylene and paraffin. Slices of 6:m thickness were prepared, and stained with Verhoeff's stain for assessment of tissue response to injury. […] The % of reendothelialization and, the % of endothelial nitric oxide synthase (eNOS) expression were calculated as follows: (the total length of the luminal surface staining positively/the perimeter of the lumen)×100, respectively. Analysis was performed by an independent examiner with no knowledge of the treatment groups to which the sections belonged. […]

[5] = test system: endothelial nitric oxide synthase (eNOS); experiment: eNOS expression by immunohistochemistry; assay type: in vivo, pigs
Procedure: as §1

[6] = test system: human umbilical vein endothelial cells; settings: HUVEC exposed to tumor necrosis factor; cited from earlier work
[7] = rats, estimated; cited from earlier work
[8] = 600 μg locally after PTCA, 28 days, mean ± SD

With `C[C@]12CC[C@@H]3c4ccc(O)cc4CC[C@H]3[C@@H]1CC[C@@H]2O` [17-beta estradiol] the “% neointima” value [1, 8] was 12.16 ± 8.89%, the “% stenosis” value [1, 8] was 15.67 ± 11.13% and the “EELref/EELinj (vascular remodeling)” value [1, 8] was 1.01±0.16. For the same compound, the Neointima area [1, 8] was 0.4 ± 0.3 mm^2, the Neointima/Media area [1, 8] was 0.59 ± 0.48 and the Restenotic index [1, 8] was 1.3 ± 0.5. The “decrease of neointima formation” value ([1]; compared to PTCA only, 28 days) was 54.6%, the “decrease of neointima formation” value ([1]; compared to vehicle alone, 28 days) was 64.9% and the “performance of lower doses” value ([1]; doses of 200 and 400 μg, local) was “as performing as the dose of 600 μg”. The “% neointima” value ([1]; female pigs) was 8.29 ± 3.72%, the “% stenosis” value ([1]; female pigs) was 11.09 ± 5.16% and the Neointima area ([1]; female pigs) was 0.25 ± 0.15 mm^2. For the same compound, the Neointima/Media area ([1]; female pigs) was 0.32 ± 0.16, the Restenotic index ([1]; female pigs, 5 segments) was 1.37 ± 0.45 and the “neointima hyperplasia compared to PTCA only or vehicle alone” value ([1]; local delivery, 28 days, in words) was “markedly less neointima hyperplasia; also recorded: significantly less neointima hyperplasia”. For the same compound, the “% neointima” value ([1]; male pigs) was 14.93 ± 10.68%, the “% stenosis” value ([1]; male pigs) was 18.93 ± 13.39% and the Neointima area ([1]; male pigs) was 0.51 ± 0.34 mm^2. For the same compound, the Neointima/Media area ([1]; male pigs) was 0.78 ± 0.55, the Restenotic index ([1]; male pigs, 7 segments) was 1.2 ± 0.59 and the “% PCNA-positive SMC in the media” value [2] was 0.4±0.3%. For the same compound, the “% of PCNA-positive SMC in the neointima” value [2] was 0.43±0.52%, the “Diameter-basal (basal coronary artery diameter)” value ([3]; 4 weeks after PTCA and 600 μg locally) was 2.53±0.6 mm and the “Diameter-post Ach” value ([3]; Ach 10^−4M, 4 weeks) was 2.28±0.61 mm. The “coronary artery diameter after nitroglycerin” value ([3]; after 10^−4 M Ach then nitroglycerin, 4 weeks) was 2.61±0.48 mm, the “vasoconstrictive response to Ach” value ([3]; any Ach concentration used, in words) was “no significant vasoconstrictive response” and the “changes in heart rate, ECG, or blood pressure” value ([3]; during the local delivery or intracoronary infusion of vasoactive agents) was “No changes”. The Reendothelialization ([4]; 4 weeks after PTCA) was 90.6±5.5%, the “reendothelialization compared to PTCA only and vehicle” value ([4]; FIG. 4, in words) was “reendothelialization to a greater degree” and the “Endothelial nitric oxide synthase expression” value ([5]; 4 weeks after PTCA) was 35.6±11.8%. The “expression of eNOS compared to PTCA only and vehicle” value ([5]; FIG. 5, in words) was “greater expression of eNOS” and the decrease in apoptosis [6] was 50%.
For `CC(O)COC[C@H]1O[C@@H]2O[C@H]3[C@H](O)[C@@H](O)[C@@H](O[C@H]4[C@H](O)[C@@H](O)[C@@H](O[C@H]5[C@H](O)[C@@H](O)[C@@H](O[C@H]6[C@H](O)[C@@H](O)[C@@H](O[C@H]7[C@H](O)[C@@H](O)[C@@H](O[C@H]8[C@H](O)[C@@H](O)[C@@H](O[C@H]1[C@H](O)[C@H]2O)O[C@@H]8COCC(C)O)O[C@@H]7COCC(C)O)O[C@@H]6COCC(C)O)O[C@@H]5COCC(C)O)O[C@@H]4COCC(C)O)O[C@@H]3COCC(C)O` (stereo partly drawn) [HPCD, 2-hydroxypropyl-beta-cyclodextrin], the “toxic dose (nephrotoxicity)” value [7] is given as 200 mg/kg.

Reference: US20070141109A1, “Local Deliver of 17-Beta Estradiol for Preventing Vascular Intimal Hyperplasia and for Improving Vascular Endothelium Function after Vascular Injury” (priority 1999, published 2007)
